In PubChem BioAssay (NCI) one finds GI50 and TGI data, which are given here for 11 compounds.

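All cell lines were grown in 96-well plates and treated with compound for 48 hours. GI50: concentration for 50% inhibition of growth. At the TGI there is no net growth.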

Test systems include EKVX NSCLC; MCF7 breast; NCI-H460 lung; NCI/ADR-RES ovarian; OVCAR-8 ovarian; SK-MEL-2 melanoma; UACC-257 melanoma; UO-31 renal; LXFL 529 NSCLC.
What all share (experiment): growth of human tumour cells (NCI), 48 h

Turning to `COc1ccc2nc(-c3ccccc3)cc(Nc3ccc(C(C)=O)cc3)c2c1`, the GI50 was 5.98 µM in the assay with EKVX NSCLC; 2.47 µM in the assay with MCF7 breast; 5.73 µM in the assay with NCI-H460 lung; 2.78 µM with NCI/ADR-RES ovarian; 4.17 µM with OVCAR-8 ovarian; 38.7 µM with SK-MEL-2 melanoma. The GI50 in the assay on UACC-257 melanoma was 12 µM; with UO-31 renal, 6.2 µM. Also, the TGI in the assay with EKVX NSCLC was 20.5 µM; in the assay with MCF7 breast, 13.9 µM; in the assay with NCI-H460 lung, 19.3 µM; in the assay with NCI/ADR-RES ovarian it was 7.29 µM; with OVCAR-8 ovarian it was 35.8 µM; in the assay on SK-MEL-2 melanoma it was more than 100 µM. Also, the TGI is 32.6 µM in the assay on UACC-257 melanoma and more than 100 µM in the assay on UO-31 renal.

Regarding `CC1(C)OC[C@@H]([C@@]2(CO[Si](C)(C)C(C)(C)C)CC=CC(=O)O2)O1`, the GI50 with EKVX NSCLC is 26.9 µM; in the assay with MCF7 breast it was 36.8 µM; in the assay with NCI-H460 lung it was 26.6 µM; with NCI/ADR-RES ovarian, 21.7 µM; in the assay with OVCAR-8 ovarian it was 33.9 µM; in the assay on SK-MEL-2 melanoma, 40.4 µM. For the same compound, the GI50 with UACC-257 melanoma was 13.8 µM; with UO-31 renal, 19.2 µM. Further, the TGI is 63.3 µM in the assay with EKVX NSCLC; more than 100 µM with MCF7 breast; more than 100 µM with NCI-H460 lung; 49.2 µM with NCI/ADR-RES ovarian; more than 100 µM with OVCAR-8 ovarian; more than 100 µM with SK-MEL-2 melanoma. Further, the figures for the TGI in the assay with UACC-257 melanoma and in the assay with UO-31 renal were 33.2 µM and 42.2 µM, respectively.

In the case of `CC1(C)NCCC[C@]2(C)[C@H]3C=CC4=C5C[C@](C)(CO)CC[C@]5(C)CC[C@@]4(C)[C@]3(C)CC[C@@H]12`, the GI50 in the assay with EKVX NSCLC is 2.77 µM; in the assay with MCF7 breast, 3.14 µM; in the assay with NCI-H460 lung, 4.17 µM; in the assay with NCI/ADR-RES ovarian it was 2.02 µM; in the assay on OVCAR-8 ovarian, 2.56 µM; in the assay on SK-MEL-2 melanoma it was 3.31 µM. For the same compound, the GI50 with UACC-257 melanoma was 5.24 µM; in the assay on UO-31 renal it was 3.59 µM. In addition, the TGI in the assay on EKVX NSCLC came out at 8.27 µM; in the assay with MCF7 breast it was 14.5 µM; in the assay with NCI-H460 lung, 15.2 µM; with NCI/ADR-RES ovarian, 4.52 µM; in the assay on OVCAR-8 ovarian it was 6.66 µM; with SK-MEL-2 melanoma, 12.2 µM. Besides, the TGI came to 17 µM in the assay with UACC-257 melanoma and 15.7 µM in the assay on UO-31 renal.

`[N-]=[N+]=C(C(=O)OCC#CCOC(=O)C(=[N+]=[N-])S(=O)(=O)c1ccccc1)S(=O)(=O)c1ccccc1`: the TGI in the assay with EKVX NSCLC, in the assay on MCF7 breast, in the assay with NCI-H460 lung, in the assay with NCI/ADR-RES ovarian, in the assay with OVCAR-8 ovarian and with SK-MEL-2 melanoma was more than 10 µM in each case. Further, the TGI in the assay on UACC-257 melanoma is more than 10 µM; with UO-31 renal it was 0.519 µM.

With `O=C(c1cc(F)c(Cl)cc1Cl)N1N=C(c2ccccc2)CC1(O)c1ccccc1` (configuration not stated), the GI50 was 19.2 µM in the assay on EKVX NSCLC; 18.3 µM in the assay with MCF7 breast; 19.1 µM in the assay on NCI-H460 lung; 19 µM with NCI/ADR-RES ovarian; 25.5 µM in the assay on OVCAR-8 ovarian; 18.1 µM in the assay on SK-MEL-2 melanoma. The GI50 in the assay on UACC-257 melanoma is 24.7 µM; with UO-31 renal, 15.7 µM. Moreover, the TGI was found to be 65.5 µM in the assay on EKVX NSCLC; 38.2 µM in the assay on MCF7 breast; 36.7 µM with NCI-H460 lung; 41 µM with NCI/ADR-RES ovarian; 72.4 µM in the assay on OVCAR-8 ovarian; 38 µM with SK-MEL-2 melanoma. In addition, the values for the TGI with UACC-257 melanoma and in the assay on UO-31 renal were 51.6 µM and 30.1 µM, respectively.

As for `Cc1cc(C)c(O)c(CNCCCCCCNCc2cc(C)cc(C)c2O)c1`, the GI50 with EKVX NSCLC is 1.74 µM; in the assay on MCF7 breast, 1.54 µM; in the assay on NCI-H460 lung, 1.89 µM; in the assay with NCI/ADR-RES ovarian, 1.85 µM; in the assay with OVCAR-8 ovarian, 2.2 µM; in the assay with SK-MEL-2 melanoma, 1.91 µM. Besides, the GI50 in the assay with UACC-257 melanoma is 2.07 µM; with UO-31 renal, 1.42 µM. The TGI in the assay with EKVX NSCLC turned out to be 3.65 µM; in the assay on MCF7 breast, 3.22 µM; in the assay on NCI-H460 lung, 3.58 µM; with NCI/ADR-RES ovarian, 3.86 µM; with OVCAR-8 ovarian, 5.01 µM; in the assay with SK-MEL-2 melanoma, 3.67 µM. Moreover, the TGI with UACC-257 melanoma amounted to 4.13 µM; in the assay with UO-31 renal it was 2.83 µM.

`CC1(CO)OC1COCc1ccccc1` (configuration not stated): the TGI with EKVX NSCLC, in the assay with LXFL 529 NSCLC, in the assay on NCI-H460 lung, in the assay with OVCAR-8 ovarian, in the assay with SK-MEL-2 melanoma and in the assay on UACC-257 melanoma was more than 100 µM each time. For the same compound, in the assay with UO-31 renal, the TGI is more than 100 µM.

Consider `CN(C)CCCN=C(N)N`, for which the TGI in the assay on EKVX NSCLC, in the assay on MCF7 breast, in the assay on NCI-H460 lung, with NCI/ADR-RES ovarian, in the assay with OVCAR-8 ovarian and in the assay with SK-MEL-2 melanoma was more than 100 µM throughout. The TGI with UACC-257 melanoma and with UO-31 renal was more than 100 µM in each case.

As for `N#CC1=C(N)NC(=S)NC12Nc1ccccc1O2` (configuration not stated), the GI50 with EKVX NSCLC is 62.3 µM; with MCF7 breast, 27.2 µM; in the assay on NCI-H460 lung it was 65.5 µM; with NCI/ADR-RES ovarian, 20.5 µM; in the assay on OVCAR-8 ovarian, 46.2 µM; in the assay on SK-MEL-2 melanoma it was 20.9 µM. For the same compound, the GI50 in the assay with UACC-257 melanoma is 35.3 µM; with UO-31 renal it was 25.4 µM. In addition, the TGI is more than 100 µM with EKVX NSCLC; more than 100 µM with MCF7 breast; more than 100 µM with NCI-H460 lung; 69.6 µM in the assay on NCI/ADR-RES ovarian; more than 100 µM in the assay on OVCAR-8 ovarian; 53.4 µM with SK-MEL-2 melanoma. In addition, the TGI in the assay with UACC-257 melanoma and in the assay with UO-31 renal was more than 100 µM throughout.

Consider `O=C(Nc1ccc(-n2cc(-c3ccncc3)c(-c3ccc(Cl)c(O)c3)n2)cc1)Nc1cc(C(F)(F)F)cc(C(F)(F)F)c1`, for which the GI50 with EKVX NSCLC was 1.97 µM; in the assay on MCF7 breast it was 2.58 µM; in the assay with NCI-H460 lung it was 1.92 µM; with NCI/ADR-RES ovarian it was 2.22 µM; in the assay with OVCAR-8 ovarian, 1.99 µM; with SK-MEL-2 melanoma it was 1.8 µM. Also, the values for the GI50 with UACC-257 melanoma and in the assay on UO-31 renal were 2.01 µM and 1.55 µM, respectively. The TGI with EKVX NSCLC stood at 5.51 µM; in the assay with MCF7 breast, 8.15 µM; in the assay with NCI-H460 lung it was 3.85 µM; in the assay on NCI/ADR-RES ovarian, 5.6 µM; in the assay on OVCAR-8 ovarian, 5.48 µM; in the assay with SK-MEL-2 melanoma, 3.45 µM. In addition, the TGI with UACC-257 melanoma came to 5.22 µM; in the assay on UO-31 renal it was 3.93 µM.

On to `COC(=O)/C=C(C)/C=C/c1cc(C(C)=O)c(C)o1`, for which the TGI in the assay on EKVX NSCLC, in the assay with LXFL 529 NSCLC, with NCI-H460 lung, with OVCAR-8 ovarian, in the assay on SK-MEL-2 melanoma and in the assay on UACC-257 melanoma was more than 100 µM each time. Besides, the TGI with UO-31 renal was more than 100 µM.
